Reference: patent publication EP4005570B1, “P[…] USE IN TREATING RETT SYNDROME” (Prilenia Neurotherapeutics Ltd., priority 2016, dated 2018)
Where “and” joins values, the source holds several entries; their conditions need not be identical. Equal entries are not always repeated. Where two headings read alike, the source gives them in different places.

Experiments:
[1] = tested on: female MeCP2 (BIRD) mouse model of RTT; conditions: for startle response: vs vehicle-treated HET mice
From the text: (§1) Dosing commenced when mice were ~5.5 weeks of age and continued through the end of behavioral testing. Behavioral testing was done at 8 and 12 weeks of age.
(§2) Female MeCP2 ([…], HET) mice and wild type (MeCP2_WT, WT) littermates were received in two cohorts at ~4.5 weeks of age from Jackson Laboratories. They were assigned unique identification numbers and group-housed in opti-MICE cages (Animal Care Systems, CO). All animals were examined and weighed prior to initiation and throughout the study to assure adequate health and suitability and to minimize nonspecific stress associated with manipulation. During the course of the study, 12/12 light/dark cycle was maintained. The room temperature was maintained between 20 and 23°C with a relative humidity maintained around 50%. Chow and water was provided ad libitum for the duration of the study. The tests were performed during the animal's light cycle phase.
Mice were placed in the PPI chambers (Med Associates) for a 5 min session of white noise (70 dB) habituation.
The inter-trial interval was variable with an average of 15 s (range from 10 to 20 s).
(§3) Data from standard tests were analyzed by genotype (t-test) and by treatment (ANOVA) followed by post-hoc comparisons where appropriate. For some measures (i.e. body weights and PPI), repeated-measures ANOVAs were performed. For clasping data, N-1 two-proportional tests were performed. An effect was considered significant if p < 0.05. All data are represented as the mean and standard error to the mean (s.e.m). Values ± 2 standard deviations from the mean were considered outliers.

BDNF = conditions: whole brain; 3 and 30 mg/kg BID; vs MeCP2_HET vehicle
Protocol: Mice were euthanized via cervical dislocation and decapitated. From 10 mice/treatment group, whole brains were collected, weighed, and then frozen on dry ice. Samples were stored at - 80°C until analysis of brain-derived neurotrophic factor (BDNF).
Once tissues were disrupted, samples were allowed to incubate at room temperate for 5 minutes.
Briefly, 150µL of Chloroform (Cat # C2432, Sigma-Aldrich, St. Louis, MO) was added and samples were shaken vigorously for 15 seconds followed by 3-minute incubation at room temperature. The aqueous phase was separated from the organic phase by centrifugation at 6,000 x g (Beckman Coulter Avanti J-30I), 4°C for 15 minutes. The aqueous phase was then transferred to a new 96-well block and total RNA was precipitated with equal volume of 70% ethanol. Content was transferred to an RNeasy 96-well plate, followed by centrifuge at 6,000-x g (Beckman Coulter Avanti J-30I), at room temperate for 4 minutes. […] RNA was eluted with RNase-Free water.
Samples were quantified using NanoDrop 8000 (Thermo Scientific). […]
Relative quantity of the PCR product (relative to the calibrator) was calculated as follows: [formula] […]
Geometric mean for the three housekeeping genes was calculated as follows: [formula]
Relative level of target gene was calculated as follows: Relative Quantity of Target gene÷Geometric mean of housekeeping genes [formula] […]

neuroblastoma cell line = conditions: S1R-dependent manner (Geva 2016); cited from earlier work
[2] = tested on: female MeCP2 (BIRD) mouse model of RTT; conditions: for Recovery (%) Gait / Recovery (%) Paw Features / Recovery (%) Paw Positioning / Recovery (%) Body Motion / Recovery (%) Rhythmicity: HET mice
From the text: as §1, §2
Mice were placed in the NeuroCube for a 5 min test. The most dominant of the features collected that define the disease phenotype (symptom descriptors) was identified and ranked. Complex bioinformatic algorithms were employed to calculate the discrimination probability between the WT and the BIRD mice and detect a test compound's ability to reverse the disease phenotype. Discriminations between mutant and wild type was calculated as well as the recovery of disease features in HET mice treated with the test compound.
The output of NeuroCube is a set of dozens of behavioral features that are submitted for analysis with machine learning techniques used in bioinformatics. Many of these features are correlated (e.g. rearing counts and supported rearing counts). Therefore, PGI forms statistically independent combinations of the original features (further referred to as de-correlated features) that discriminate between the two groups more effectively.
Each de-correlated feature extracts information from the whole cluster of the original features, so the new feature space has lower dimensionality. Next, PGI applies a proprietary feature ranking algorithm to score each feature's discrimination power (ability to separate the two groups, e.g. control and disease).
Ranking is an important part of the analyses because it weighs each feature change by its relevance: if there is a significant change in some irrelevant feature measured for a particular phenotype, the low rank of this feature will automatically reduce the effect of such change in the analyses, so there is no need to resort to the conventional "feature selection" approach and discard information buried in the less informative features. Ranking algorithm can be applied to either original or the new features to gain insight about the key control-disease differences (see Figure 1).
In the new feature space, the overlap between the "clouds" (Gaussian distributions approximating the groups of mice in the ranked de-correlated features space) serves as a quantitative measure of separability ("distinguishability") between the two groups (see Figure 2). For visualization purposes, each cloud was plotted with its semi-axes equal to the one standard deviation along the corresponding dimensions.

[3] = tested on: patient afflicted with RTT; conditions: periodic administration (daily or twice daily), intravenously or orally
[4] = tested on: female MeCP2 (BIRD) mouse model of RTT
From the text: as §1, §2, §3

[5] = 12 weeks, 30 mg/kg BID, 30 mg/kg
[6] = 12 weeks, 30 mg/kg BID, listed as pridopidine, 30 mg/kg

With `CCCN1CCC(c2cccc(S(C)(=O)=O)c2)CC1` [Pridopidine, 4-[3-(methylsulfonyl)phenyl]-1-propyl-piperidine] the startle response ([1]; 3 mg/kg BID, both ages (8 and 12 weeks)) was “increased startle response”, the startle response ([1]; 30 mg/kg BID) was “did not have a significant effect” and the prepulse inhibition response ([1]; 3 and 30 mg/kg BID, HET mice) was “No genotype or treatment effects were observed”. The “BDNF I mRNA expression” value (BDNF) was “None of the treatments had a significant effect”, the “BDNF VI mRNA expression” value (BDNF) was “None of the treatments had a significant effect” and the “secretion of the neuroprotective brain-derived neurotrophic factor (BDNF)” value (neuroblastoma cell line) was “enhances secretion”. For the same compound, the gait measures ([2]; 3 mg/kg BID, compared with vehicle-treated mutants, age not stated) was “differed significantly”, the “recovery of overall gait features” value ([2]; 3 mg/kg, 8 weeks of age, Figure 8A) was “no recovery” and the “recovery of overall gait features” value ([2]; 3 mg/kg, 12 weeks of age, Figure 9A) was “no recovery”. The “recovery of overall gait features” value ([2]; 30 mg/kg, 8 weeks of age, Figure 8B) was 45% and 55%, the “recovery of overall gait features” value ([2]; 30 mg/kg, 8 weeks of age, Figure 8B, listed as pridopidine) was “significant recovery” and the “recovery of overall gait features” value ([2]; 30 mg/kg, 12 weeks of age, Figure 9B) was 55%. The “Recovery (%) Gait” value ([2]; 8 weeks, 3 mg/kg BID) was 38%, the “Recovery (%) Paw Features” value ([2]; 8 weeks, 3 mg/kg BID) was 0% and the “Recovery (%) Paw Positioning” value ([2]; 8 weeks, 3 mg/kg BID) was 8%. For the same compound, the “Recovery (%) Body Motion” value ([2]; 8 weeks, 3 mg/kg BID, 3 mg/kg) was 82%, the “Recovery (%) Body Motion” value ([2]; 8 weeks, 3 mg/kg BID, listed as pridopidine, 3 mg/kg) was “showed efficacy” and the “Recovery (%) Gait” value ([2]; 8 weeks, 30 mg/kg BID) was 71%. For the same compound, the “Recovery (%) Paw Features” value ([2]; 8 weeks, 30 mg/kg BID) was 63%, the “Recovery (%) Paw Positioning” value ([2]; 8 weeks, 30 mg/kg BID) was 35% and the “Recovery (%) Body Motion” value ([2]; 8 weeks, 30 mg/kg BID, 30 mg/kg) was 84%. For the same compound, the “Recovery (%) Body Motion” value ([2]; 8 weeks, 30 mg/kg BID, listed as pridopidine, 30 mg/kg) was “showed efficacy”, the “Recovery (%) Gait” value ([2]; 12 weeks, 3 mg/kg BID) was 60% and the “Recovery (%) Paw Features” value ([2]; 12 weeks, 3 mg/kg BID) was 0%. The “Recovery (%) Paw Positioning” value ([2]; 12 weeks, 3 mg/kg BID) was 35%, the “Recovery (%) Rhythmicity” value ([2]; 12 weeks, 3 mg/kg BID) was 41% and the “Recovery (%) Body Motion” value ([2]; 12 weeks, 3 mg/kg BID, 3 mg/kg) was 65%. For the same compound, the “Recovery (%) Body Motion” value ([2]; 12 weeks, 3 mg/kg BID, listed as pridopidine, 3 mg/kg) was “showed efficacy”, the “Recovery (%) Paw Features” value ([2]; 12 weeks, 30 mg/kg BID) was 69% and the “Recovery (%) Paw Positioning” value ([2]; 12 weeks, 30 mg/kg BID) was 52%. For the same compound, the “Recovery (%) Rhythmicity” value ([2]; 12 weeks, 30 mg/kg BID) was 10%, the “Recovery (%) Body Motion” value [2, 5] was 59% and the “Recovery (%) Gait” value [2, 5] was 100%. The “Recovery (%) Body Motion” value [2, 6] was “showed efficacy”, the “Recovery (%) Gait” value [2, 6] was “Significant effects” and the “treatment of the patient afflicted with RTT” value [3] was “effective to treat the patient”. For the same compound, the hindlimb clasping ([4]; 3 mg/kg BID, 8 and 12 weeks, vs HET-vehicle) was “did not have a significant effect” and the hindlimb clasping ([4]; 30 mg/kg BID, 12 weeks) was “this effect was not seen”.
